These are literature values, as cited in patent publication US10231947B2, “Isochroman compounds and methods of use thereof” (ARIZONA BOARD OF REGENTS ON BEHALF OF ARIZONA STATE …, priority 2017, dated 2019).

The target of one series is hRXRβ (Homo sapiens, UniProt P28702). As to conditions: read-out: EC50 for the hRXRβ isoform.
The target of series [1] is hRXR. As to conditions: Caco-2 cells.
Series [2] concerns hRXR. Particulars: Caco-2 cells. The source holds these as a separate data set.

hRXRβ, sequence (P28702 whole entry, canonical isoform): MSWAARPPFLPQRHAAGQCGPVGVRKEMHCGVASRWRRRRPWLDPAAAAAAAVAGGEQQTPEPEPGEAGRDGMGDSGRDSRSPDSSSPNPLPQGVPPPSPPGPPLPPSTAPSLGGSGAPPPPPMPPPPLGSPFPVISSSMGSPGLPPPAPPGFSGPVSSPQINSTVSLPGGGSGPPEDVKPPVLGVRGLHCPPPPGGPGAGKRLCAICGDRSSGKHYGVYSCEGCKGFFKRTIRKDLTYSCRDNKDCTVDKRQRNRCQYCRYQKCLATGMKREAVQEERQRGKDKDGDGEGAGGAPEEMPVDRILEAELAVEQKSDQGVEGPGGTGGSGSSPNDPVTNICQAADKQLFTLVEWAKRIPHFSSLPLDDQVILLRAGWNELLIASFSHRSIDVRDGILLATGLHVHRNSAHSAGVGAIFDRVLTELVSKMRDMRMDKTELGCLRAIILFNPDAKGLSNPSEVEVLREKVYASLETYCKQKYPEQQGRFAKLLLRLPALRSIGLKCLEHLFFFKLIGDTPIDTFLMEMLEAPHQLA

Turning to `Cc1cc2c(cc1-c1cc(/C=C/C(=O)O)ccc1O)C(C)(C)CCC2(C)C` [CD3254], the EC50 (as a rule, the concentration needed to bring the measured effect to its halfway point) on hRXRβ is around 10 nM. Take `C=C(c1ccc(C(=O)O)c(F)c1)c1cc2c(cc1C)C(C)(C)CCC2(C)C` [compound 3]: the dissociation constant Kd (usually the equilibrium constant for the complex coming apart) on hRXR [1] was 12 nM. Moreover, the EC50 in the series on hRXR [2] was 43 nM.
